In the test the target is T1, human M1 receptor (hCHRM1) (Homo sapiens, UniProt P11229).
T1 construct: expressed in transfected cells; host or cells: CHO-K1
T1 sequence (P11229 1-460): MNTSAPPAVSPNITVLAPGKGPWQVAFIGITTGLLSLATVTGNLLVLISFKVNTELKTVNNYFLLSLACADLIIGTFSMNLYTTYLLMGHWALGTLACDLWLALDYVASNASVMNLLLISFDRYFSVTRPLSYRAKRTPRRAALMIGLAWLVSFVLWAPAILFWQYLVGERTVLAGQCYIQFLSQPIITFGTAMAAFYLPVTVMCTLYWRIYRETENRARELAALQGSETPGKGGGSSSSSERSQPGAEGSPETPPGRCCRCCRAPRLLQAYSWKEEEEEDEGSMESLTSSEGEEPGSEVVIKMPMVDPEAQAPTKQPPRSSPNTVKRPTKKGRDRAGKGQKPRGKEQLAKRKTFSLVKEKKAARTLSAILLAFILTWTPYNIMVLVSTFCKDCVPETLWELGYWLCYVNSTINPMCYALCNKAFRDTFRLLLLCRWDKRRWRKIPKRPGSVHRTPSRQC
Kind of test: Measurement of M1 receptor positive allosteric modulator (M1PAM) activity, calcium fluorescence with acetylcholine at EC20. The test is classed as cell-based. The following applies: for activity (%) at 10 μM: 10 μM test compound, 100% = 1 μM acetylcholine, 0% = DMSO; for EC50: CHO-K1 cells expressing hCHRM1, acetylcholine at EC20 (final 0.8-1.0 nM), read-out: IP value (inflection point in the concentration-dependent curve). As to the method: Measurement of M1 Receptor Positive Allosteric Modulator (M1PAM) Activity
The activity of a test compound in the presence of acetylcholine at EC20 concentration (final concentration 0.8-1.0 nM), which affords an action corresponding to about 20% of the maximum activity, was measured as PAM activity. The method is as follows. CHO-K1 cells stably expressing a human M1 receptor (hCHRM1) were plated on a 384-well black clear bottom plate (BD Falcon) at 5,000 cells/well, and cultured in an incubator at 37° C., 5% CO2 for 1 day. The medium in the cell plate was removed, and assay buffer A containing calcium indicator (Recording medium (DOJINDO LABORATORIES), 0.1% BSA (Wako Pure Chemical Industries, Ltd.), 2.5 μg/mL Fluo-4 AM (DOJINDO LABORATORIES), 0.08% Pluronic F127 (DOJINDO LABORATORIES), 1.25 mM probenecid (DOJINDO LABORATORIES)) was added at 30 μL/well. The cells were left standing in the incubator at 37° C., 5% CO2 for 30 min, and further left standing at room temperature for 30 min. A test compound prepared by diluting with assay buffer B (HBSS (Invitrogen), 20 mM HEPES (Invitrogen), 0.1% BSA) containing 3.2-4.0 nM acetylcholine was added at 10 μL/well, and the fluorescence was measured by FDSS/μCELL (Hamamatsu Photonics K.K.) for 1 min every for 1 second. With the definition that the amount of change in the fluorescence on addition of acetylcholine (final concentration 1 μM) is 100% and that on addition of DMSO instead of a test compound is 0%, the activity (%) of the test compound was calculated, and the inflection point in the concentration-dependent curve of the test compound was calculated as IP values.

The structures appear in SMILES notation.

Regarding `O=C(NC1CC(F)(F)CCC1O)c1cc(Cc2ccc(-n3cccn3)cc2)c2c(n1)CCO2` (single isomer, unassigned) [Example 27, N-(trans-5,5-difluoro-2-hydroxycyclohexyl)-7-(4-(1H-pyrazol-1-yl)benzyl)-2,3-dihydrofuro[3,2-b]pyridine-5-carboxamide], the “activity (%) at 10 μM” value came to 100% and the EC50 was found to be 4.5 nM.

With `O=C(N[C@@H]1CCC(F)(F)C[C@H]1O)c1cc(Cc2ccc(-n3cccn3)cc2)c2c(n1)CCO2` (single isomer, unassigned) [Example 46, N-(trans-4,4-difluoro-2-hydroxycyclohexyl)-7-(4-(1H-pyrazol-1-yl)benzyl)-2,3-dihydrofuro[3,2-b]pyridine-5-carboxamide], the “activity (%) at 10 μM” value was found to be 107% and the EC50 was determined as 4.3 nM.

For `Cn1cc(-c2ccc(C(F)c3cc(C(=O)N[C@H]4CCOC[C@@H]4O)nc4ccoc34)cn2)cn1` (single isomer, unassigned) [Example 51, 1,5-anhydro-2,3-dideoxy-3-(((7-(fluoro(6-(1-methyl-1H-pyrazol-4-yl)pyridin-3-yl)methyl)furo[3,2-b]pyridin-5-yl)carbonyl)amino)-L-threo-pentitol], the “activity (%) at 10 μM” value was 104% and the EC50 was 0.88 nM.

With `Cn1cc(-c2ccc(C(F)c3cc(C(=O)N[C@H]4CCOC[C@@H]4O)nc4ccoc34)cc2)nn1` (single isomer, unassigned) [Example 56, 1,5-anhydro-2,3-dideoxy-3-(((7-(fluoro(4-(1-methyl-1H-1,2,3-triazol-4-yl)phenyl)methyl)furo[3,2-b]pyridin-5-yl)carbonyl)amino)-L-threo-pentitol], the “activity (%) at 10 μM” value is reported as 106% and the EC50 amounted to 42 nM.

With `Cn1cc(-c2ccc(C(F)c3cc(C(=O)N[C@H]4CCCC[C@@H]4O)nc4ccoc34)cc2)nn1` (single isomer, unassigned) [Example 57], the “activity (%) at 10 μM” value is 99% and the EC50 worked out at 1.1 nM.

With `O=C(N[C@H]1COCC[C@@H]1O)c1cc(Cc2ccc(-n3cccn3)cc2)c2c(n1)CCO2` [Example 3, 1,5-anhydro-2,4-dideoxy-2-(((7-(4-(1H-pyrazol-1-yl)benzyl)-2,3-dihydrofuro[3,2-b]pyridin-5-yl)carbonyl)amino)-L-threo-pentitol], the “activity (%) at 10 μM” value is reported as 100% and the EC50 is 13 nM.

In the case of `Cn1ccc(-c2ccc(Cc3cc(C(=O)N[C@H]4COCC[C@@H]4O)nc4c3OCC4)cc2)n1` [Example 8, 1,5-anhydro-2,4-dideoxy-2-(((7-(4-(1-methyl-1H-pyrazol-3-yl)benzyl)-2,3-dihydrofuro[3,2-b]pyridin-5-yl)carbonyl)amino)-L-threo-pentitol], the “activity (%) at 10 μM” value was determined as 100% and the EC50 is 7.9 nM.

For the compound `Cc1csc(-c2ccc(Cc3cc(C(=O)N[C@H]4CCCC[C@@H]4O)nc4c3OCC4)cc2)n1` [Example 16, N-((1S,2S)-2-hydroxycyclohexyl)-7-(4-(4-methyl-1,3-thiazol-2-yl)benzyl)-2,3-dihydrofuro[3,2-b]pyridine-5-carboxamide], the “activity (%) at 10 μM” value is on record as 100% and the EC50 was 10 nM.

As for `Cc1ncc(-c2ccc(Cc3cc(C(=O)N[C@H]4CCCC[C@@H]4O)nc4c3OCC4)cc2)s1` [Example 18, N-((1S,2S)-2-hydroxycyclohexyl)-7-(4-(2-methyl-1,3-thiazol-5-yl)benzyl)-2,3-dihydrofuro[3,2-b]pyridine-5-carboxamide], the “activity (%) at 10 μM” value is on record as 97% and the EC50 amounted to 12 nM.

For `Cn1cc(-c2ccc(Cc3cc(C(=O)N[C@H]4COCC[C@@H]4O)nc4ccoc34)cc2)nn1` [Example 21, 1,5-anhydro-2,4-dideoxy-2-(((7-(4-(1-methyl-1H-1,2,3-triazol-4-yl)benzyl)furo[3,2-b]pyridin-5-yl)carbonyl)amino)-L-threo-pentitol], the “activity (%) at 10 μM” value is listed as 100% and the EC50 was 1.6 nM.

Consider `Cn1cc(-c2ccc(Cc3cc(C(=O)N[C@H]4CCCC[C@@H]4O)nc4ccoc34)cc2)nn1` [Example 23, N-((1S,2S)-2-hydroxycyclohexyl)-7-(4-(1-methyl-1H-1,2,3-triazol-4-yl)benzyl)furo[3,2-b]pyridine-5-carboxamide], for which the “activity (%) at 10 μM” value was 99% and the EC50 amounted to 1.5 nM.

Take `Cn1ccc(-c2ccc(Cc3cc(C(=O)N[C@H]4CCOC[C@@H]4O)nc4c3OCC4)cc2)n1` [Example 28, 1,5-anhydro-2,3-dideoxy-3-(((7-(4-(1-methyl-1H-pyrazol-3-yl)benzyl)-2,3-dihydrofuro[3,2-b]pyridin-5-yl)carbonyl)amino)-L-threo-pentitol]: the “activity (%) at 10 μM” value is recorded as 101% and the EC50 was 2.3 nM.

Consider `Cn1cc(-c2ccc(Cc3cc(C(=O)N[C@H]4CCOC[C@@H]4O)nc4ccoc34)cn2)nn1` [Example 34, 1,5-anhydro-2,3-dideoxy-3-(((7-((6-(1-methyl-1H-1,2,3-triazol-4-yl)pyridin-3-yl)methyl)furo[3,2-b]pyridin-5-yl)carbonyl)amino)-L-threo-pentitol], for which the “activity (%) at 10 μM” value is 100% and the EC50 was 2.4 nM.

For the compound `Cn1cc(-c2ccc(Cc3cc(C(=O)N[C@H]4CCOC[C@@H]4O)nc4ccoc34)cc2)cn1` [Example 40, 1,5-anhydro-2,3-dideoxy-3-(((7-(4-(1-methyl-1H-pyrazol-4-yl)benzyl)furo[3,2-b]pyridin-5-yl)carbonyl)amino)-L-threo-pentitol], the “activity (%) at 10 μM” value is 98% and the EC50 is 1.6 nM.

As to `Cc1cc(-c2ccc(Cc3cc(C(=O)N[C@H]4CCOC[C@@H]4O)nc4ccoc34)cc2)cnn1` [Example 43, 1,5-anhydro-2,3-dideoxy-3-(((7-(4-(6-methylpyridazin-4-yl)benzyl)furo[3,2-b]pyridin-5-yl)carbonyl)amino)-L-threo-pentitol], the “activity (%) at 10 μM” value came out at 110% and the EC50 came out at 2.4 nM.

For `Cn1cc(-c2ccc(Cc3cc(C(=O)N[C@H]4CCCC[C@@H]4O)nc4c3OCC4)cc2)nn1` [Example 47, N-((1S,2S)-2-hydroxycyclohexyl)-7-(4-(1-methyl-1H-1,2,3-triazol-4-yl)benzyl)-2,3-dihydrofuro[3,2-b]pyridine-5-carboxamide], the “activity (%) at 10 μM” value is recorded as 101% and the EC50 worked out at 1.8 nM.

Turning to `O=C(N[C@H]1CCOC[C@@H]1O)c1cc(Cc2ccc(-n3cccn3)cc2)c2occc2n1` [Example 48, 1,5-anhydro-2,3-dideoxy-3-(((7-(4-(1H-pyrazol-1-yl)benzyl)furo[3,2-b]pyridin-5-yl)carbonyl)amino)-L-threo-pentitol], the “activity (%) at 10 μM” value amounted to 103% and the EC50 amounted to 1.1 nM.

In the case of `Cc1nccc(-c2ccc(Cc3cc(C(=O)N[C@H]4CCOC[C@@H]4O)nc4ccoc34)cc2)n1` [Example 49, 1,5-anhydro-2,3-dideoxy-3-(((7-(4-(2-methylpyrimidin-4-yl)benzyl)furo[3,2-b]pyridin-5-yl)carbonyl)amino)-L-threo-pentitol], the “activity (%) at 10 μM” value came to 104% and the EC50 came out at 2.9 nM.

Turning to `Cn1cc(-c2ccc(Cc3cc(C(=O)N[C@H]4CCOC[C@@H]4O)nc4c3OCC4)cn2)cn1` [Example 60, 1,5-anhydro-2,3-dideoxy-3-(((7-((6-(1-methyl-1H-pyrazol-4-yl)pyridin-3-yl)methyl)-2,3-dihydrofuro[3,2-b]pyridin-5-yl)carbonyl)amino)-L-threo-pentitol], the “activity (%) at 10 μM” value is recorded as 104% and the EC50 was 1.6 nM.

Turning to `Cn1cc(-c2ccc(Cc3cc(C(=O)N[C@H]4CCCC[C@@H]4O)nc4c3OCC4)cn2)cn1` [Example 61, N-((1S,2S)-2-hydroxycyclohexyl)-7-((6-(1-methyl-1H-pyrazol-4-yl)pyridin-3-yl)methyl)-2,3-dihydrofuro[3,2-b]pyridine-5-carboxamide], the “activity (%) at 10 μM” value amounted to 104% and the EC50 was found to be 1.8 nM.

(Values after patent US12378256B2, “Heterocyclic compound” (Takeda Pharmaceutical Company Limited, priority 2017, dated 2025).)
